Values of other authors as cited in article PMC6784055 (Toxins, 2019).

Tested on: rat brain sodium channel
Details: relative to PbTx1

C[C@@H]1C[C@@H]2O[C@@H]3[C@@H](C)[C@H](O)[C@@H]4O[C@]5(C[C@H](O)CO5)[C@@H](C)[C@H](C)[C@H]4O[C@H]3C[C@H]2O[C@H]2C[C@H]3O[C@H]4C/C=C\C[C@H]5O[C@H]6C=C[C@H]7O[C@H]8[C@H](O)[C@H]9O[C@@H](/C=C/[C@H](O)CO)C=CC[C@@H]9O[C@@H]8C[C@@H]7O[C@@H]6C=C[C@@H]5O[C@@H]4C[C@@H](O)[C@]3(C)O[C@@H]2C1 [ciguatoxin-1B]
binding affinity stronger than that of PbTx1: 50 fold
